# In patent US12570675B2, “Boronic acid compounds” (LG CHEM, LTD., priority 2020, dated 2026):
# Key:
# [1] = biological target: Proteasome caspase-like activity (S26 protein from RPMI8226 cells) (Homo sapiens (Human), UniProt P28072); test: Proteasome caspase-like activity inhibition (Z-Leu-Leu-Glu-AMC fluorogenic substrate, RPMI8226 cell extract); format: biochemical; settings: S26 protein from RPMI8226 cell extract 2 ug/well, substrate 20 uM, 37° C., 90 minutes
# Procedure, shortened: (§1)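 Inhibition is measured in crude proteasome (S26) from RPMI8226 cells at 2 ug/well, using 20 uM substrate specific to each activity: Suc-LLVY-AMC for chymotrypsin-like, Z-LLE-AMC for caspase-like. Compounds span a dilution series from 10 uM.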
# [2] = biological target: Proteasome chymotrypsin-like activity (S26 protein from RPMI8226 cells) (Homo sapiens, UniProt P28074); format: biochemical; settings: S26 protein from RPMI8226 cell extract 2 ug/well, substrate 20 uM, 37° C., 90 minutes; read-out: Proteasome chymotrypsin-like activity inhibition IC50
# Procedure, shortened: as §1
# Proteasome caspase-like activity (S26 protein from RPMI8226 cells), sequence (P28072 whole entry): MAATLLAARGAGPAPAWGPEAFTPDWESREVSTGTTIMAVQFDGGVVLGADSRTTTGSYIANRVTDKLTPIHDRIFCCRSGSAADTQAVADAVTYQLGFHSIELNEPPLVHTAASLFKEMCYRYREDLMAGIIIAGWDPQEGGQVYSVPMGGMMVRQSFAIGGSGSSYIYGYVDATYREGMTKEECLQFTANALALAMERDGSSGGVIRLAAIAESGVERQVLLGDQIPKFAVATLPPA
# Proteasome chymotrypsin-like activity (S26 protein from RPMI8226 cells), sequence (P28074 60-263 limits assumed): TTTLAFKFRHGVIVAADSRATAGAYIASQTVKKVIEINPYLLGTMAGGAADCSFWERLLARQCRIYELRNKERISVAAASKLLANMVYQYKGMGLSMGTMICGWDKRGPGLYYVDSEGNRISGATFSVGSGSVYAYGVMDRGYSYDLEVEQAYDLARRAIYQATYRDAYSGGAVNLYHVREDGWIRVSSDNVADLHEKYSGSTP
Structure (SMILES),IC50 [1],IC50 [2]
"CC(C)C[C@H](NC(=O)C1(Cc2ccccc2)CC(CNC(=O)c2cnc3c(ccn3C(C)C)c2)=NO1)B(O)O (stereo partly drawn) [Example 212, ((1R)-1-(5-benzyl-3-((1-isopropyl-1H-pyrrolo[2,3-b]pyridin-5-carboxamido)methyl)-4,5-dihydroisoxazol-5-carboxamido)-3-methylbutyl)boronic acid]",> 100 nM,< 10 nM
"CC(C)C[C@H](NC(=O)C1(Cc2ccccc2)CC(CNC(=O)c2cc(C(C)(C)C)nn2C(C)C)=NO1)B(O)O (stereo partly drawn) [Example 224, ((1R)-1-(5-benzyl-3-((3-(tert-butyl)-1-isopropyl-1H-pyrazol-5-carboxamido)methyl)-4,5-dihydroisoxazol-5-carboxamido)-3-methylbutyl)boronic acid]",> 2500 nM,< 10 nM
"Cc1cc(C(=O)NCC2=NOC(Cc3ccccc3)(C(=O)N[C@@H](CC(C)C)B(O)O)C2)n(-c2ccccc2)n1 (stereo partly drawn) [Example 246, ((1R)-1-(5-benzyl-3-((3-methyl-1-phenyl-1H-pyrazol-5-carboxamido)methyl)-4,5-dihydroisoxazol-5-carboxamido)-3-methylbutyl)boronic acid]",> 1000 nM,< 10 nM
"Cc1cc(C(=O)NCC2=NOC(Cc3ccccc3)(C(=O)N[C@@H](CC(C)C)B(O)O)C2)n(-c2ccc(F)cc2)n1 (stereo partly drawn) [Example 247, ((1R)-1-(5-benzyl-3-((1-(4-fluorophenyl)-3-methyl-1H-pyrazol-5-carboxamido)methyl)-4,5-dihydroisoxazol-5-carboxamido)-3-methylbutyl)boronic acid]",> 1000 nM,< 10 nM
CC(C)C[C@H](NC(=O)C1CC(COCc2ccccc2)=NO1)B(O)O (stereo partly shown) [Example 252],> 500 nM,< 100 nM
CC(C)C[C@H](NC(=O)C1(Cc2ccccc2)CC(COCc2ccccc2)=NO1)B(O)O (stereo partly shown) [Example 256],> 1000 nM,< 10 nM
"O=C(N[C@@H](Cc1ccccc1)B(O)O)C1(Cc2ccccc2)CC(COCc2ccccc2)=NO1 (stereo partly drawn) [Example 257, ((1R)-1-(5-benzyl-3-((benzyloxy)methyl)-4,5-dihydroisoxazol-5-carboxamido)-2-phenylethyl)boronic acid]",> 2500 nM,< 10 nM
CC(C)C[C@H](NC(=O)C1(Cc2ccccc2)CC(CNC(=O)c2ccccc2)=NO1)B(O)O (stereo partly shown) [Example 291],> 250 nM,< 10 nM
"O=C(NCC1=NOC(Cc2ccccc2)(C(=O)N[C@@H](Cc2ccccc2)B(O)O)C1)c1ccccc1 (stereo partly drawn) [Example 292, ((1R)-1-(3-(benzamidomethyl)-5-benzyl-4,5-dihydroisoxazol-5-carboxamido)-2-phenylethyl)boronic acid]",> 1000 nM,< 10 nM
"CC(C)[C@H](NC(=O)C1(Cc2ccccc2)CC(CNC(=O)c2ccccc2)=NO1)B(O)O (stereo partly drawn) [Example 294, ((1R)-1-(3-(benzamidomethyl)-5-benzyl-4,5-dihydroisoxazol-5-carboxamido)-2-methylpropyl)boronic acid]",> 1000 nM,< 10 nM
CC(C)C[C@H](NC(=O)C1(Cc2ccccc2)CC(CNC(=O)c2cccc(Cl)n2)=NO1)B(O)O (stereo partly shown) [Example 308],> 500 nM,< 10 nM
